Structures can show the parent of a compound that is named as a salt.
Experiment: Drug release (dissolution) of the controlled release tablets, USP apparatus Type I
Type: physicochemical
Conditions: 900 ml phosphate buffer pH 7.5, USP Type I basket 100 rpm, Example tablet
Experimental: The tablets were characterized for drug release in 900 ml of phosphate buffer of pH 7.5. The USP apparatus Type I with basket speed at 100 rpm was used for the study. The samples of the media were periodically withdrawn and analyzed for drug content.

Cumulative percent drug released (1 hour)	Cumulative percent drug released (2 hours)	Cumulative percent drug released (3 hours)	Cumulative percent drug released (4 hours)	Cumulative percent drug released (5 hours)	Cumulative percent drug released (6 hours)	Cumulative percent drug released (8 hours)	Cumulative percent drug released (10 hours)	Cumulative percent drug released (12 hours)	Cumulative percent drug released (15 hours)	Cumulative percent drug released (18 hours)	Cumulative percent drug released (21 hours)	Cumulative percent drug released (24 hours)	SMILES
28.83%	49.59%	64.74%	78.09%	88.49%	93.26%	97.29%	100.01%	103.93%	105.57%	105.92%	105.99%	106.47%	CN(C)C(=N)N=C(N)N [Metformin Hydrochloride, Metformin hydrochloride]
6.5%	16.6%	27.1%	33.9%	41.5%	47.3%	55.4%	67.9%	75.2%	85.8%	93.0%	99.4%	102.5%	Cc1cnc(C(=O)NCCc2ccc(S(=O)(=O)NC(=O)NC3CCCCC3)cc2)cn1 [Glipizide]

From US20030219482A1, “Multiparticulate compositions for once-a-day administration” (priority 2002, published 2003)
